Values of other authors as cited in US20100273186A1, “SPLIT MUTANT HYDROLASE FUSION REPORTER AND USES THEREOF” (Promega Corporation, priority 2007, published 2010).

System: Photinus pyralis luciferase

Row | Substance | reduction of activity on addition of cyclic AMP dependent protein kinase catalytic subunit (Waud et al.) [%] | decrease of activity when phosphorylated (Sala-Newby et al.)
1 | LRRASLG | 30 | –
2 | RRFS: Photinus pyralis luciferase mutant, V217R generating site RRFS (SEQ ID NO:11), Sala-Newby et al. | – | up to 80%
